Assay results published in patent publication US20170196175A1, “COMPOSITIONS FOR THE DELIVERY OF AGROCHEMICALS TO THE ROOTS OF A PLANT” (ADAMA MAKHTESHIM LTD., priority 2014, published 2017).

Columns and labels:
[1] = Diffusion of Atrazine and Mesotrione from units submerged in free water; format: physicochemical; conditions: over 5 days
Protocol: A unit (each from the table above) was placed within a 500 cc vial. 250 cc of DI water were added. The vial was cover with punched Parafilm and stored at room temperature. After 24 hours, the free water, which didn't absorbed by the polymer, were drained and stored in a cold room. DI water at the same volume was refilled into the vial. Repeated this stage after 72 and 120 hours.

[2] = test system: Solanum Nigrum; assay: Weed development and mortality (Example 11); format: in vivo; conditions: for Weed control, unit versus spray practice: damage of weed buds from 13 days to end of trial
Excerpt: Weeds: 30 seeds of Solanum Nigrum per pot.
Analysis of weeds parameters: Fresh biomass, size and total area covered by weeds per pot.

[3] = Azoxystrobin content in pepper leaves (Example 12); format: in vivo
Protocol: Planting/harvesting dates: (47 days). Following harvest, unit samples from all treatments were excavated gently and were quantified for roots penetration and total root length. A core from the middle of each sample was cut and analyzed for root content. Root count in both vertical and horizontal axes and total volume were used estimating the root total length within a single unit. Total leaves biomass of each plant was analyzed to Azoxystrobin content in qualified laboratory (Bactochem, Israel).
Azoxystrobin application through the soil was studied as part of its registration process. The concentration in pepper leaves was measured over time from application. Similar Azoxystrobin concentrations in leaves were found in both commercial and current trial (tenth of ppm). […] This significant difference may inform the potential of the unit for protecting the plant for longer periods compared to current application practice.

[4] = Example 12; cited from earlier work
[5] = soil application studied as part of registration process, 28 DAP; cited from earlier work
[6] = test system: maize; assay: Crop selectivity (Example 11); format: in vivo
Excerpt: Soil: 10 liter pots (surface area of 0.045 m^2) filled with Rehovot Sand (High sand fraction, low OM, low EC, low CEC, and High pH).
Crops: 6 maize plants per pot following herbicide application (high demand to fertilizers with selectivity).
Analysis of crop development parameters: Height and fresh biomass.

| SMILES | Dose released from the new units to the surrounding free water [1] | Weed control, unit versus spray practice [2] | Azoxystrobin concentration in unit leaves ([3]; 47 DAP) | Difference in Azoxystrobin concentration in leaves between fully fertilized and no fertilizer ([3]; DAP 47) [fold] | Azoxystrobin concentration in leaves ([3]; pepper, unit and commercial trial) | DT50 [4] [days] | Azoxystrobin residue in commercial leaves [5] | Crop selectivity (crop height, color, final fresh biomass) ([6]; double and fourfold doses) | Crop selectivity (crop height, color, final fresh biomass) ([6]; standard dose) | Weed control, half application rate in unit versus full spray rate ([2]; in vivo) |
| --- | --- | --- | --- | --- | --- | --- | --- | --- | --- | --- |
| CCNc1nc(Cl)nc(NC(C)C)n1 [Atrazine] | up to 10% | no difference between unit and spray practices | – | – | – | – | – | – | – | – |
| CO/C=C(/C(=O)OC)c1ccccc1Oc1cc(Oc2ccccc2C#N)ncn1 [Azoxystrobin] | – | – | effective concentrations were found | 5 | tenth of ppm | 100 to 150 | no residue were found | – | – | – |
| CS(=O)(=O)c1ccc(C(=O)C2C(=O)CCCC2=O)c([N+](=O)[O-])c1 [Mesotrione] | up to 25% | significant advantages of unit over spray | – | – | – | – | – | yellowish and slight shorter (fourfold only), yet no difference was found in fresh biomass | selective | more effective than full spray rate |
